Experimental data from ChEMBL document CHEMBL4732191, “Synthesis of novel potent cytotoxicy podophyllotoxin-naphthoquinone compounds via microwave-assited multicomponent domino reactions” (Bioorg Med Chem Lett, 2021).

Legend:
HEK293 = assay: Cytotoxicity against human HEK293 cells; type: cell-based
HepG2 = assay: Cytotoxicity against human HepG2 cells; type: functional, cell-based
SK-LU-1 = assay: Cytotoxicity against human SK-LU-1 cells; type: functional, cell-based
KB = assay: Cytotoxicity against human KB cells; type: functional, cell-based
MCF7 = assay: Cytotoxicity against human MCF7 cells; type: functional, cell-based
[1] = Selectivity index, ratio of IC50 for human HEK293 cells to IC50 for human HepG2 cells; type: toxicity; settings: HEK293 cells and HepG2 cells, read-out: Ratio IC50
[2] = Selectivity index, ratio of IC50 for human HEK293 cells to IC50 for human SK-LU-1 cells

Row | Structure (SMILES) | IC50 (HEK293) | IC50 (HepG2) | IC50 (SK-LU-1) | IC50 (KB) | IC50 (MCF7) | selectivity ratio [1] | Ratio IC50 [2]
1 | O=C1OCC2=C1C(c1ccc(C(F)(F)F)cc1)C1=C(N2)C(=O)c2ccccc2C1=O (stereo not drawn) | 7.59 µM | 1.24 µM | 0.51 µM | 0.8 µM | > 2.5 µM |  | 
2 | COc1cccc(C2C3=C(COC3=O)NC3=C2C(=O)c2ccccc2C3=O)c1 (stereo not drawn) | 9.35 µM | 0.46 µM | < 0.04 µM | 1.23 µM | > 2.5 µM | ≥ 200 | >=200
3 | COc1ccc(C2C3=C(COC3=O)NC3=C2C(=O)c2ccccc2C3=O)cc1 (stereo not drawn) | 8.17 µM | 2.06 µM | 0.88 µM | 0.88 µM | > 2.5 µM |  | 
4 | O=C1OCC2=C1C(c1ccc(F)cc1)C1=C(N2)C(=O)c2ccccc2C1=O (stereo not drawn) | 5.35 µM | 0.44 µM | 0.28 µM | 2.16 µM | > 2.5 µM |  | 
5 | O=C1OCC2=C1C(c1ccc3c(c1)C(=O)OC3)C1=C(N2)C(=O)c2ccccc2C1=O (stereo not drawn) | 4.78 µM | 0.47 µM | 0.08 µM | 1.86 µM | > 2.5 µM |  | 
6 | O=C1OCC2=C1C(c1cccc3ccccc13)C1=C(N2)C(=O)c2ccccc2C1=O (stereo not drawn) | 14.7 µM | > 2.5 µM | > 2.5 µM | > 2.5 µM | > 2.5 µM |  | 
7 | O=C1OCC2=C1C(c1ccccc1)C1=C(N2)C(=O)c2ccccc2C1=O (stereo not drawn) | 1.34 µM | < 0.044 µM | < 0.044 µM | 1.54 µM | 1.98 µM | ≥ 200 | >=200
8 | COc1cc(C2C3=C(COC3=O)NC3=C2C(=O)c2ccccc2C3=O)ccc1O (stereo not drawn) | 1.41 µM | 0.41 µM | 0.41 µM | 1.9 µM | > 2.5 µM |  | 
9 | O=C1OCC2=C1C(c1ccc(Cl)cc1)C1=C(N2)C(=O)c2ccccc2C1=O (stereo not drawn) | 5.89 µM | 1.35 µM | 0.5 µM | 1.46 µM | > 2.5 µM |  | 
10 | O=C1OCC2=C1C(c1ccccc1[N+](=O)[O-])C1=C(N2)C(=O)c2ccccc2C1=O (stereo not drawn) | 9.95 µM | > 2.5 µM | 2.22 µM | 2.34 µM | > 2.5 µM |  | 
11 | O=C1OCC2=C1C(c1cccc([N+](=O)[O-])c1)C1=C(N2)C(=O)c2ccccc2C1=O (stereo not drawn) | 1.47 µM | < 0.039 µM | < 0.039 µM | 1.16 µM | 2.19 µM | ≥ 200 | >=200
12 | O=C1OCC2=C1C(c1cccc(Br)c1)C1=C(N2)C(=O)c2ccccc2C1=O (stereo not drawn) | 7.2 µM | < 0.036 µM | < 0.036 µM | 1.71 µM | > 2.5 µM | ≥ 200 | >=200
13 | O=C1OCC2=C1C(c1ccccc1F)C1=C(N2)C(=O)c2ccccc2C1=O (stereo not drawn) | 10.3 µM | 0.42 µM | 0.28 µM | 1.19 µM | > 2.5 µM |  | 
14 | O=C1OCC2=C1C(c1ccc(Br)cc1)C1=C(N2)C(=O)c2ccccc2C1=O (stereo not drawn) | 8.27 µM | 1.5 µM | 0.45 µM | 2.14 µM | > 2.5 µM |  | 
15 | O=C1OCC2=C1C(c1ccc3ccccc3c1)C1=C(N2)C(=O)c2ccccc2C1=O (stereo not drawn) | 7.61 µM | 1.68 µM | 1.02 µM | > 2.5 µM | > 2.5 µM |  | 
16 | Cc1ccc(C2C3=C(COC3=O)NC3=C2C(=O)c2ccccc2C3=O)cc1 (stereo not drawn) | 21.6 µM | 2.24 µM | 1.65 µM | > 2.5 µM | > 2.5 µM |  | 
17 | Cc1c2ccncc2c(C)c2c1[nH]c1ccccc12 [ELLIPTECINE] | 1.69 µM | 1.66 µM | 1.54 µM | 1.75 µM | 1.58 µM |  | 
